Data reported in ChEMBL document CHEMBL3045273, “Synthesis, characterization, and pharmacological evaluation of 1-[2-(6-nitro-4-oxo-2-phenyl-4H-quinazolin-3-yl)-ethyl]-3-phenyl ureas” (2013).
In brackets after ≈: the same amount, converted by molar mass.

What was measured:
Bacillus subtilis [1] = experiment: Antibacterial activity against Bacillus subtilis ATCC 11774 assessed as growth inhibition after 24 hr by serial broth dilution method; assay type: functional; settings: ATCC 11774, 24 h
Pseudomonas aeruginosa [2] = experiment: Antibacterial activity against Pseudomonas aeruginosa ATCC 27853 assessed as initial concentration required for appearance of zone of inhibition after 24 hr; assay type: functional
Staphylococcus aureus [3] = experiment: Antibacterial activity against Staphylococcus aureus ATCC 25923 assessed as growth inhibition after 24 hr by serial broth dilution method; assay type: functional; settings: ATCC 25923, 24 h
Staphylococcus aureus [4] = experiment: Antibacterial activity against Staphylococcus aureus ATCC 25923 assessed as initial concentration required for appearance of zone of inhibition after 24 hr; assay type: functional
Escherichia coli [5] = experiment: Antibacterial activity against Escherichia coli ATCC 25922 assessed as growth inhibition after 24 hr by serial broth dilution method; assay type: functional; settings: ATCC 25922, 24 h
Pseudomonas aeruginosa [6] = experiment: Antibacterial activity against Pseudomonas aeruginosa ATCC 27853 assessed as growth inhibition after 24 hr by serial broth dilution method; assay type: functional; settings: ATCC 27853, 24 h
Bacillus subtilis [7] = experiment: Antibacterial activity against Bacillus subtilis ATCC 11774 assessed as initial concentration required for appearance of zone of inhibition after 24 hr; assay type: functional
Escherichia coli [8] = experiment: microbe, parasite or virus in culture; settings: ATCC 25922, 24 h, read-out: DIZ
Staphylococcus aureus [9] = experiment: Antibacterial activity against Staphylococcus aureus ATCC 25923 assessed as growth inhibition at 300 ug/ml after 24 hr by Kirby-Bauer disk diffusion method; assay type: functional; settings: ATCC 25923, 24 h, read-out: DIZ
Escherichia coli [10] = experiment: microbe, parasite or virus in culture; settings: ATCC 25922, 24 h, read-out: DIZ; remark: listed apart in the source
Bacillus subtilis [11] = experiment: Antibacterial activity against Bacillus subtilis ATCC 11774 assessed as growth inhibition at 300 ug/ml after 24 hr by Kirby-Bauer disk diffusion method; assay type: functional; settings: ATCC 11774, 24 h, read-out: DIZ
Candida albicans [12] = experiment: Antifungal activity against Candida albicans ATCC 66027 assessed as growth inhibition after 24 hr by serial broth dilution method; assay type: functional; settings: ATCC 66027, 24 h
Candida albicans [13] = experiment: Antifungal activity against Candida albicans ATCC 66027 assessed as growth inhibition at 100 ug/ml after 24 hr by Kirby-Bauer disk diffusion method; assay type: functional; settings: ATCC 66027, 24 h, read-out: DIZ
Candida albicans [14] = experiment: Antifungal activity against Candida albicans ATCC 66027 assessed as growth inhibition at 300 ug/ml after 24 hr by Kirby-Bauer disk diffusion method; assay type: functional; settings: ATCC 66027, 24 h, read-out: DIZ
Escherichia coli [15] = experiment: Antibacterial activity against Escherichia coli ATCC 25922 assessed as initial concentration required for appearance of zone of inhibition after 24 hr; assay type: functional
Bacillus subtilis [16] = experiment: Antibacterial activity against Bacillus subtilis ATCC 11774 assessed as growth inhibition at 100 ug/ml after 24 hr by Kirby-Bauer disk diffusion method; assay type: functional; settings: ATCC 11774, 24 h, read-out: DIZ
Pseudomonas aeruginosa [17] = experiment: Antibacterial activity against Pseudomonas aeruginosa ATCC 27853 assessed as growth inhibition at 300 ug/ml after 24 hr by Kirby-Bauer disk diffusion method; assay type: functional; settings: ATCC 27853, 24 h, read-out: DIZ
Candida albicans [18] = experiment: Antifungal activity against Candida albicans ATCC 66027 assessed as initial concentration required for appearance of zone of inhibition after 24 hr; assay type: functional
Pseudomonas aeruginosa [19] = experiment: Antibacterial activity against Pseudomonas aeruginosa ATCC 27853 assessed as growth inhibition at 100 ug/ml after 24 hr by Kirby-Bauer disk diffusion method; assay type: functional; settings: ATCC 27853, 24 h, read-out: DIZ
Escherichia coli [20] = experiment: Antibacterial activity against Escherichia coli ATCC 25922 assessed as growth inhibition at 40 ug/ml after 24 hr by Kirby-Bauer disk diffusion method; assay type: functional; settings: ATCC 25922, 24 h, read-out: DIZ
Staphylococcus aureus [21] = experiment: Antibacterial activity against Staphylococcus aureus ATCC 25923 assessed as growth inhibition at 100 ug/ml after 24 hr by Kirby-Bauer disk diffusion method; assay type: functional; settings: ATCC 25923, 24 h, read-out: DIZ

Row | SMILES | MIC (Bacillus subtilis [1]) [µg/mL] | Activity (Pseudomonas aeruginosa [2]) [µg/mL] | MIC (Staphylococcus aureus [3]) [µg/mL] | Activity (Staphylococcus aureus [4]) [µg/mL] | MIC (Escherichia coli [5]) [µg/mL] | MIC (Pseudomonas aeruginosa [6]) [µg/mL] | Activity (Bacillus subtilis [7]) [µg/mL] | zone of inhibition at 100 µg/mL (Escherichia coli [8]) [mm] | zone of inhibition at 300 µg/mL (Staphylococcus aureus [9]) [mm] | zone of inhibition at 300 µg/mL (Escherichia coli [10]) [mm] | zone of inhibition at 300 µg/mL (Bacillus subtilis [11]) [mm] | MIC (Candida albicans [12]) [µg/mL] | zone of inhibition at 100 µg/mL (Candida albicans [13]) [mm] | zone of inhibition at 300 µg/mL (Candida albicans [14]) [mm] | Activity (Escherichia coli [15]) [µg/mL] | zone of inhibition at 100 µg/mL (Bacillus subtilis [16]) [mm] | zone of inhibition at 300 µg/mL (Pseudomonas aeruginosa [17]) [mm] | Activity (Candida albicans [18]) [µg/mL] | zone of inhibition at 100 µg/mL (Pseudomonas aeruginosa [19]) [mm] | other results
1 | O=C(NCCn1c(-c2ccccc2)nc2ccc([N+](=O)[O-])cc2c1=O)Nc1ccccc1 | 100 (≈ 233 µM) | 200 | 100 (≈ 233 µM) | 200 | 70 (≈ 163 µM) | 40 (≈ 93.1 µM) | 100 | 11 | 14 | 16 | 15 | 20 (≈ 46.6 µM) | 17 | 20 | 100 | 11 | 14 | 20 |  | 
2 | O=C(NCCn1c(-c2ccccc2)nc2ccc([N+](=O)[O-])cc2c1=O)NC1CCCCC1 | 100 (≈ 230 µM) | 70 | 200 (≈ 459 µM) | 200 | 70 (≈ 161 µM) | 70 (≈ 161 µM) | 200 | 13 | 12 | 18 | 13 | 20 (≈ 45.9 µM) | 13 | 21 | 70 |  | 17 | 20 | 12 | 
3 | O=C(NCCn1c(-c2ccccc2)nc2ccc([N+](=O)[O-])cc2c1=O)Nc1ccc(Cl)cc1 | 70 (≈ 151 µM) | 100 | 200 (≈ 431 µM) | 200 | 40 (≈ 86.2 µM) | 40 (≈ 86.2 µM) | 70 | 12 | 12 | 14 | 16 | 40 (≈ 86.2 µM) | 15 | 21 | 70 | 12 | 16 | 40 | 11 | 
4 | Cc1ccccc1NC(=O)NCCn1c(-c2ccccc2)nc2ccc([N+](=O)[O-])cc2c1=O | 70 (≈ 158 µM) | 70 | 70 (≈ 158 µM) | 70 | 40 (≈ 90.2 µM) | 40 (≈ 90.2 µM) | 100 | 13 | 14 | 16 | 14 | 20 (≈ 45.1 µM) | 16 | 19 | 40 | 11 | 18 | 20 | 12 | zone of inhibition at 40 µg/mL (Escherichia coli [20]): 11 mm; zone of inhibition at 100 µg/mL (Staphylococcus aureus [21]): 12 mm
5 | Cc1ccc(NC(=O)NCCn2c(-c3ccccc3)nc3ccc([N+](=O)[O-])cc3c2=O)cc1 | 70 (≈ 158 µM) | 70 | 70 (≈ 158 µM) | 70 | 40 (≈ 90.2 µM) | 70 (≈ 158 µM) | 70 | 14 | 14 | 17 | 15 | 20 (≈ 45.1 µM) | 14 | 17 | 40 | 12 | 17 | 20 | 12 | zone of inhibition at 40 µg/mL (Escherichia coli [20]): 11 mm; zone of inhibition at 100 µg/mL (Staphylococcus aureus [21]): 12 mm
6 | O=C(NCCn1c(-c2ccccc2)nc2ccc([N+](=O)[O-])cc2c1=O)Nc1ccc(C(F)(F)F)cc1 | 70 (≈ 141 µM) | 70 | 70 (≈ 141 µM) | 100 | 70 (≈ 141 µM) | 40 (≈ 80.4 µM) | 70 | 11 | 13 | 15 | 14 | 40 (≈ 80.4 µM) | 15 | 20 | 100 | 12 | 18 | 40 | 12 | zone of inhibition at 100 µg/mL (Staphylococcus aureus [21]): 11 mm
7 | O=C(NCCn1c(-c2ccccc2)nc2ccc([N+](=O)[O-])cc2c1=O)Nc1cc(C(F)(F)F)cc(C(F)(F)F)c1 | 40 (≈ 70.7 µM) | 40 | 200 (≈ 354 µM) | 200 | 100 (≈ 177 µM) | 40 (≈ 70.7 µM) | 70 | 11 | 12 | 14 | 19 | 20 (≈ 35.4 µM) | 17 | 24 | 100 | 14 | 19 | 20 | 14 | 
8 | CSc1ccc(NC(=O)NCCn2c(-c3ccccc3)nc3ccc([N+](=O)[O-])cc3c2=O)cc1 | 70 (≈ 147 µM) | 70 | 200 (≈ 421 µM) | 200 | 40 (≈ 84.1 µM) | 70 (≈ 147 µM) | 70 | 14 | 12 | 18 | 16 | 20 (≈ 42.1 µM) | 15 | 20 | 40 | 12 | 19 | 20 | 12 | zone of inhibition at 40 µg/mL (Escherichia coli [20]): 11 mm
9 | O=C(NCCn1c(-c2ccccc2)nc2ccc([N+](=O)[O-])cc2c1=O)Nc1cc(C(F)(F)F)ccc1Cl | 100 (≈ 188 µM) | 70 | 200 (≈ 376 µM) | 300 | 70 (≈ 132 µM) | 70 (≈ 132 µM) | 100 | 11 | 12 | 18 | 14 | 20 (≈ 37.6 µM) | 14 | 20 | 70 | 11 | 19 | 40 | 12 | 
10 | O=C(O)c1cn(C2CC2)c2cc(N3CCNCC3)c(F)cc2c1=O [CIPROFLOXACIN] | 5 (≈ 15.1 µM) | 10 | 5 (≈ 15.1 µM) | 10 | 15 (≈ 45.3 µM) | 10 (≈ 30.2 µM) | 5 |  |  |  |  |  |  |  | 20 |  |  |  |  | 
11 | OC(Cn1cncn1)(Cn1cncn1)c1ccc(F)cc1F [FLUCONAZOLE] |  |  |  |  |  |  |  |  |  |  |  | 5 (≈ 16.3 µM) |  |  |  |  |  | 10 |  | 
